Data from US12077503B2, “Substituted cyclic amides and their use as herbicides” (FMC CORPORATION, priority 2015, dated 2024).

Key:
Assay type in all cases: in vivo
Kochia (Kochia scoparia) [1] = assay: Test A postemergence; conditions: Bassia scoparia, post-emergence, 240 h, 125 g ai/ha, postemergence; visual injury after approximately 10 d; 0 to 100 scale (0 no effect, 100 complete control); read-out: Plant response rating, Kochia
In short: (§1)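 Each rating is a visual injury score from 0 to 100 given about 10 d after treatment, judged against untreated controls kept alongside in the greenhouse. In loam soil–sand blend, seeds got a preemergence directed soil spray, while postemergence plants were 2 to 10 cm tall at spraying.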

corn (Zea mays) = assay: Test A postemergence; conditions: Zea mays, post-emergence, 240 h, 125 g ai/ha, postemergence; visual injury after approximately 10 d; 0 to 100 scale (0 no effect, 100 complete control)
In short: as §1

[2] = test system: ryegrass, Italian (Italian ryegrass, Lolium multiflorum); assay: Test A postemergence; conditions: Lolium multiflorum, post-emergence, 240 h, 125 g ai/ha, postemergence; visual injury after approximately 10 d; 0 to 100 scale (0 no effect, 100 complete control); read-out: Plant response rating, Ryegrass, Italian
In short: as §1

[3] = test system: wheat (Triticum aestivum); assay: Test A postemergence; conditions: Triticum aestivum, post-emergence, 240 h, 125 g ai/ha, postemergence; visual injury after approximately 10 d; 0 to 100 scale (0 no effect, 100 complete control); read-out: Plant response rating, Wheat
In short: as §1

[4] = test system: blackgrass (Alopecurus myosuroides); assay: Test A postemergence; conditions: Alopecurus myosuroides, post-emergence, 240 h, 125 g ai/ha, postemergence; visual injury after approximately 10 d; 0 to 100 scale (0 no effect, 100 complete control); read-out: Plant response rating, Blackgrass
In short: as §1

[5] = test system: barnyardgrass (Echinochloa crus-galli); assay: Test A postemergence; conditions: Echinochloa crus-galli, post-emergence, 240 h, 125 g ai/ha, postemergence; visual injury after approximately 10 d; 0 to 100 scale (0 no effect, 100 complete control); read-out: Plant response rating, Barnyardgrass
In short: as §1

[6] = test system: Galium (catchweed bedstraw, Galium aparine); assay: Test A postemergence; conditions: Galium, post-emergence, 240 h, 125 g ai/ha, postemergence; visual injury after approximately 10 d; 0 to 100 scale (0 no effect, 100 complete control); read-out: Plant response rating, Galium
In short: as §1

[7] = test system: ragweed (common ragweed, Ambrosia elatior); assay: Test A postemergence; conditions: Ambrosia artemisiifolia, post-emergence, 240 h, 125 g ai/ha, postemergence; visual injury after approximately 10 d; 0 to 100 scale (0 no effect, 100 complete control); read-out: Plant response rating, Ragweed
In short: as §1

[8] = test system: giant foxtail (Setaria faberii); assay: Test A postemergence; conditions: Setaria faberi, post-emergence, 240 h, 125 g ai/ha, postemergence; visual injury after approximately 10 d; 0 to 100 scale (0 no effect, 100 complete control); read-out: Plant response rating, Foxtail, Giant
In short: as §1

[9] = test system: pigweed (Amaranthus retroflexus); assay: Test A postemergence; conditions: Amaranthus retroflexus, post-emergence, 240 h, 125 g ai/ha, postemergence; visual injury after approximately 10 d; 0 to 100 scale (0 no effect, 100 complete control); read-out: Plant response rating, Pigweed
In short: as §1

Kochia (Kochia scoparia) [10] = assay: Test A preemergence; conditions: Bassia scoparia, pre-emergence, 240 h, preemergence, read-out: Plant response rating, Kochia; for pest or weed control at 125 g/ha: 125 g ai/ha, visual rating after approx. 10 d, 0 to 100 scale where 0 is no effect and 100 is complete control; for pest or weed control at 500 g/ha: 500 g ai/ha, 0 to 100 scale, 0 = no effect, 100 = complete control
In short: as §1

[11] = test system: ryegrass, Italian (Italian ryegrass, Lolium multiflorum); assay: Test A preemergence; conditions: Lolium multiflorum, pre-emergence, 240 h, preemergence, read-out: Plant response rating, Ryegrass, Italian; for pest or weed control at 125 g/ha: 125 g ai/ha, visual rating after approx. 10 d, 0 to 100 scale where 0 is no effect and 100 is complete control; for pest or weed control at 500 g/ha: 500 g ai/ha, 0 to 100 scale, 0 = no effect, 100 = complete control
In short: as §1

[12] = test system: barnyardgrass (Echinochloa crus-galli); assay: Test A preemergence; conditions: Echinochloa crus-galli, pre-emergence, 240 h, preemergence, read-out: Plant response rating, Barnyardgrass; for pest or weed control at 125 g/ha: 125 g ai/ha, visual rating after approx. 10 d, 0 to 100 scale where 0 is no effect and 100 is complete control; for pest or weed control at 500 g/ha: 500 g ai/ha, 0 to 100 scale, 0 = no effect, 100 = complete control
In short: as §1

[13] = test system: ragweed (common ragweed, Ambrosia elatior); assay: Test A preemergence; conditions: Ambrosia artemisiifolia, pre-emergence, 240 h, preemergence, read-out: Plant response rating, Ragweed; for pest or weed control at 125 g/ha: 125 g ai/ha, visual rating after approx. 10 d, 0 to 100 scale where 0 is no effect and 100 is complete control; for pest or weed control at 500 g/ha: 500 g ai/ha, 0 to 100 scale, 0 = no effect, 100 = complete control
In short: as §1

[14] = test system: giant foxtail (Setaria faberii); assay: Test A preemergence; conditions: Setaria faberi, pre-emergence, 240 h, preemergence, read-out: Plant response rating, Foxtail, Giant; for pest or weed control at 125 g/ha: 125 g ai/ha, visual rating after approx. 10 d, 0 to 100 scale where 0 is no effect and 100 is complete control; for pest or weed control at 500 g/ha: 500 g ai/ha, 0 to 100 scale, 0 = no effect, 100 = complete control
In short: as §1

SMILES | pest or weed control at 125 g/ha (Kochia (Kochia scoparia) [1]) [%] | Corn plant response rating (crop injury, 0 = no effect, 100 = complete kill) at 125 g/ha (corn (Zea mays)) [%] | pest or weed control at 125 g/ha [2] [%] | plant injury at 125 g/ha [3] [%] | pest or weed control at 125 g/ha [4] [%] | pest or weed control at 125 g/ha [5] [%] | pest or weed control at 125 g/ha [6] [%] | pest or weed control at 125 g/ha [7] [%] | pest or weed control at 125 g/ha [8] [%] | pest or weed control at 125 g/ha [9] [%] | pest or weed control at 125 g/ha (Kochia (Kochia scoparia) [10]) [%] | pest or weed control at 500 g/ha (Kochia (Kochia scoparia) [10]) [%] | pest or weed control at 125 g/ha [11] [%] | pest or weed control at 500 g/ha [11] [%] | pest or weed control at 125 g/ha [12] [%] | pest or weed control at 500 g/ha [12] [%] | pest or weed control at 125 g/ha [13] [%] | pest or weed control at 500 g/ha [13] [%] | pest or weed control at 125 g/ha [14] [%] | pest or weed control at 500 g/ha [14] [%]
Cc1ccc([C@H]2CNC(=O)[C@@H]2C(=O)Nc2cccc(F)c2F)s1 [Compound 729] | 0 | 0 | 0 | 0 | 0 | 0 | 0 | 0 | 0 | 0 | 0 | 0 | 0 | 0 | 0 | 0 | 0 | 0 | 0 | 0
CSc1ccccc1NC(=O)[C@H]1C(=O)N(C)C[C@@H]1c1ccc(C)c(C)c1 [Compound 733] | 0 | 0 | 20 | 20 | 0 | 90 | 20 | 0 | 80 | 0 | 20 | 80 | 40 | 60 | 90 | 100 | 70 | 80 | 90 | 90
CSc1ccccc1NC(=O)[C@H]1C(=O)N(C)C[C@@H]1c1cc(F)cc(F)c1 [Compound 738] | 20 | 20 | 0 | 0 | 0 | 80 | 50 | 0 | 70 | 20 | 0 | 70 | 0 | 20 | 90 | 100 | 0 | 70 | 90 | 100
CN1C[C@H](c2cc(F)cc(F)c2)[C@@H](C(=O)Nc2ccccc2S(C)(=O)=O)C1=O [Compound 739] | 30 | 20 | 20 | 0 | 0 | 90 | 50 | 30 | 90 | 20 | 30 | 80 | 0 | 30 | 90 | 100 | 50 | 80 | 90 | 100
CN1C[C@H](c2ccc3c(c2)CCC3)[C@@H](C(=O)Nc2ccccc2F)C1=O [Compound 742] | 30 | 70 | 60 | 60 | 40 | 90 | 50 | 20 | 90 | 0 | 60 | 90 | 50 | 90 | 90 | 90 | 20 | 80 | 90 | 90
CN1C[C@H](c2ccc3c(c2)CCC3)[C@@H](C(=O)Nc2cccc(F)c2F)C1=O [Compound 743] | 30 | 60 | 40 | 50 | 30 | 90 | 50 | 0 | 90 | 0 | 60 | 80 | 90 | 90 | 90 | 90 | 0 | 40 | 90 | 90
CN1C[C@H](c2ccc3c(c2)CCC3)[C@@H](C(=O)Nc2ccccc2S(C)(=O)=O)C1=O [Compound 744] | 30 | 40 | 30 | 50 | 20 | 60 | 30 | 20 | 80 | 0 | 60 | 90 | 0 | 80 | 20 | 90 | 0 | 50 | 90 | 90
